Patent US6030993A, “2-hydroxypropionic acid derivative and its manufacturing method” (Sang Sup JEW, priority 1996, dated 2000)
Entries after “also recorded” stand apart in the source; their conditions may differ.

Tested on: not given
Test: not given
Conditions: phase II clinical trials, discontinued; cited from earlier work

In the case of `CCOC(=O)[C@@]1(CCCCCCOc2ccc(Cl)cc2)CO1` [etomoxir], the “side effects associated with prolonged administration” value is listed as “enlarged heart; also recorded: toxicity in the liver”.

Tested on: not listed separately
Test: Acute oral toxicity test in rats
Conditions: rat, in vivo, mature rats 200-250 g, dissolved in ethylacetate
Protocol: The acute toxicity tests on rats were performed using the compound prepared by the procedure of the Example 1. Mature rats weighing 200-250 g were orally given the compound of the Example 1 dissolved in ethylacetate in parallel with its gradually increasing concentration. Then, LD50 was calculated by number of killed animals.

Work on `CCOC(=O)C(O)(CO)CCCCCCOCc1ccccc1` (stereo not drawn) [Example 1, Ethyl-2,3-dihydroxy-2-(6-benzoxy)hexylpropionate] yielded an LD50 of 482 mg/kg.

Tested on: diabetes-induced Sprague-Dawley rats
Test: Blood glucose lowering effect in streptozotocin diabetes-induced rats, oral
Format: in vivo
Conditions: Rattus norvegicus; STZ (45 mg/kg) diabetic male Sprague-Dawley rats; 50 mg/kg oral in 30% ethanol; smallest blood glucose of 90, 120 and 180 min; read-out: Blood glucose lowering rate
Protocol: Two groups of male diabetes-induced Sprague-Dawley rats (each of 4-5 rats weighing about 250 g per group) were used for this experiment. 45 mg/kg of streptozotocin (STZ) dissolved in 0.1M citrate buffer (pH 4.5, 0-4° C.) was injected to the tail vein of fasted rats for 1 day. After elapse of 7 days, their blood glucose concentration were measured and animals having the blood serum concentration of more than 350 mg/dl were used as diabetes-induced rats for this experiment. The rats were intravenously administered at a daily dose of 1 ml/kg, while the normal control group received equal volume of 0.1M citrate buffer.
7 days after being treated with streptozotocin, diabetes-induced rats were orally administered at a dose of 50 mg/kg of the compounds prepared by the procedures of Examples 1-13. Then, at time intervals of 90 mins, 120 mins and 180 mins, their blood glucose concentrations were measured and the smallest values were taken. The compounds of Example 1-13 were dissolved in 30% ethanol until its final concentration became 2 ml/kg, while the control group was orally received equal volume of 30% ethanol.
Significant difference between two groups was determined by ANOVA test, together with a post hoc test using Newman-Keuls test.

Point of comparison: `CCOC(=O)C(O)(CO)CCCCCCOCc1ccc(Cl)s1` (stereo not drawn) [Example 7, Ethyl-2,3-dihydroxy-2-[6-(5-chloro-2-thiophenmethoxy)hexyl]propionate], inhibition in vivo at 50 mg/kg 19.2%. Against it:
- CCOC(=O)C(O)(CO)CCCCCCOCc1ccccc1 (stereo not drawn) [Example 1, Ethyl-2,3-dihydroxy-2-(6-benzoxy)hexylpropionate] — higher, 38.5%
- CCOC(=O)C(O)(CO)CCCCCCOCc1ccc(OC)cc1 (stereo not drawn) [Example 2, Ethyl-2,3-dihydroxy-2-[6-(4-methoxybenzoxy)hexyl]propionate] — lower, 10%
- CCOC(=O)C(O)(CO)CCCCCCOc1ccc(Cl)cc1 (stereo not drawn) [Example 3, Ethyl-2,3-dihydroxy-2-[6-(4-chlorophenoxy)hexyl]propionate] — higher, 23%
- CCOC(=O)C(O)(CO)CCCCCCOCc1ccc(C)o1 (stereo not drawn) [Example 5, Ethyl-2,3-dihydroxy-2-[6-(5-methyl-2-furanmethoxy)hexyl]propionate] — higher, 22%
- CCOC(=O)C(O)(CO)CCCCCCOCCc1cccs1 (stereo not drawn) [Example 6, Ethyl-2,3-dihydroxy-2-[6-(2-thiophenethoxy)hexyl]propionate] — lower, 1.2%
- CCOC(=O)C(O)(CO)CCCCCCOCc1sccc1Cl (stereo not drawn) [Example 8, Ethyl-2,3-dihydroxy-2-[6-(3-chloro-2-thiophenmethoxy)hexyl]propionate] — higher, 26%
- CCOC(=O)C(O)(CBr)CCCCCCOc1ccc(Cl)cc1 (stereo not drawn) [Example 9] — higher, 22%
- CCOC(=O)C(O)(CCCCCCOCc1ccccc1)COS(=O)(=O)c1ccc(C)cc1 (stereo not drawn) [Example 10, Ethyl 2-hydroxy-3-(4-methylbenzenesulfoxy)-2-[6-benzoxyhexyl]propionate] — higher, 34.1%
- CCOC(=O)C(O)(CBr)CCCCCCOCCc1cccs1 (stereo not drawn) [Example 11, Ethyl 2-hydroxy-3-bromo-2-[6-(2-thiophenethoxy)hexyl]propionate] — lower, 13%
- CCOC(=O)C(O)(CBr)CCCCCCOCc1ccc(Cl)s1 (stereo not drawn) [Example 12, Ethyl 2-hydroxy-3-bromo-2-[6-(5-chlorothiophenemethoxy)hexyl]propionate] — higher, 26.4%
- CCOC(=O)C(O)(CBr)CCCCCCOCc1sccc1Cl (stereo not drawn) [Example 13, Ethyl 2-hydroxy-3-bromo-2-[6-(3-chlorothiophenemethoxy)hexyl]propionate] — higher, 19.3%

Same assay, conditions: STZ (45 mg/kg) diabetic male Sprague-Dawley rats; 50 mg/kg oral in 30% ethanol; smallest blood glucose of 90, 120 and 180 min

For `CCOC(=O)C(O)(CO)CCCCCCn1nc(C)cc1C` (stereo not drawn) [Example 4, Ethyl-2,3-dihydroxy-2-[6-(3,5-dimethylpyrazol)hexyl]propionate], the “Blood glucose lowering rate” value was 19.8%.
